Laboratory results published in patent US11078197B2, “5-membered and bicyclic heterocyclic amides as inhibitors of rock” (BRISTOL-MYERS SQUIBB COMPANY, priority 2017, dated 2021).

Biological target: ROCK2 (Homo sapiens (Human), UniProt O75116)
Assay: ROCK2 assay (peptide phosphorylation, LABCHIP 3000 Reader)
Type: biochemical
Conditions: 5 μM ATP, 1.5 μM peptide substrate, dose-response
Experimental: After incubation, the reaction was terminated by the addition of EDTA and the phosphorylated and non-phosphorylated peptides separated using a LABCHIP®3000 Reader (Caliper Life Sciences). […] Compounds were tested in dose-response format, and the inhibition of kinase activity was calculated at each concentration of compound. […] Representative Examples were tested in the ROCK2 assay described above and found having ROCK2 inhibitory activity.

Chain of ROCK2 (O75116 whole entry, species assumed): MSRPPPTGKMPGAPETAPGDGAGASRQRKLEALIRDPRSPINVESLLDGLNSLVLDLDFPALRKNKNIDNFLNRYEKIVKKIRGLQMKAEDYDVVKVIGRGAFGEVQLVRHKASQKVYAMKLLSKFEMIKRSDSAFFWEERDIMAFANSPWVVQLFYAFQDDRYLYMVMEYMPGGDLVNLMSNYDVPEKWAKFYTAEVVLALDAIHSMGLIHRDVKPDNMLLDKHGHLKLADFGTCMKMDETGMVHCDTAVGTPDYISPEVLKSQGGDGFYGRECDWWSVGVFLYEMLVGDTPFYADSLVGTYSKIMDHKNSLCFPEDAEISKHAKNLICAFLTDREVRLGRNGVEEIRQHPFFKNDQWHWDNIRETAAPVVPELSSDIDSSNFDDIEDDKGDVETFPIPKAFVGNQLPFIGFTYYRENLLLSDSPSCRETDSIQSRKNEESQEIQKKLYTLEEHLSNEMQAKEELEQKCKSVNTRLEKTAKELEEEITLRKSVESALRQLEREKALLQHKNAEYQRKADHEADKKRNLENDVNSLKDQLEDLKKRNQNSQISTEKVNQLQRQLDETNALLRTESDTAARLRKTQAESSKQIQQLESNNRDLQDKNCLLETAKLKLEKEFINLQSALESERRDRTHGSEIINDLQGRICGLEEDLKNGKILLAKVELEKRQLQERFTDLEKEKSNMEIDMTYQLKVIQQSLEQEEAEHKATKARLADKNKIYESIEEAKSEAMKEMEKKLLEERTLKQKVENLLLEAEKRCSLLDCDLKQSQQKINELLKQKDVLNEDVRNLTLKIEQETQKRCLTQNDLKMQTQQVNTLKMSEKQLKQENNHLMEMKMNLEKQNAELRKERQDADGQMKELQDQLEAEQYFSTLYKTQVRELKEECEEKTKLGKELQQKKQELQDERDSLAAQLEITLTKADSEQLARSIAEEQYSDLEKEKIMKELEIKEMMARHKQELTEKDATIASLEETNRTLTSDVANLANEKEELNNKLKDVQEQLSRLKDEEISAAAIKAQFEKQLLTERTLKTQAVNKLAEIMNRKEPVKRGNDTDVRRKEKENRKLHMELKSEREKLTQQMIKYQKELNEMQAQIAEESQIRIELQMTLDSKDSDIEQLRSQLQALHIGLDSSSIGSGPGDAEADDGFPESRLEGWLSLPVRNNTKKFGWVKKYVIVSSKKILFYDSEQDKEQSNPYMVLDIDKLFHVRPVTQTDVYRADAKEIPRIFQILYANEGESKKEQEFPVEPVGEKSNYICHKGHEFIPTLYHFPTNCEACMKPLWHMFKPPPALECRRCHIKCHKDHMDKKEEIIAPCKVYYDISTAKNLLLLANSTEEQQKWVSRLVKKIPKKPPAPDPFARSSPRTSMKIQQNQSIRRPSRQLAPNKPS

Row | Structure (SMILES) | IC50
1 | COc1nc(O[C@H]2C[C@@]3(C[C@H](NC(=O)c4cnn(-c5ccc(C(F)(F)F)cn5)c4C)C3)C2)c(C(N)=O)s1 (stereo partly shown) [Example 114, 2-methoxy-4-{[(4s)-6-{5-methyl-1-[5-(trifluoromethyl)pyridin-2-yl]-1H-pyrazole-4-amido}spiro[3.3]heptan-2-yl]oxy}-1,3-thiazole-5-carboxamide] | 0.115 µM
2 | CC(C)CC1NC(=O)N([C@H]2C[C@@]3(C[C@H](Oc4nn(C5CC5)cc4C(N)=O)C3)C2)C1=O (stereo partly drawn) [Example 105, 1-cyclopropyl-3-{[(aR)-6-[4-(2-methylpropyl)-2,5-dioxoimidazolidin-1-yl]spiro[3.3]heptan-2-yl]oxy}-1H-pyrazole-4-carboxamide] | 0.133 µM
3 | CC(C)C1NC(=O)N([C@H]2C[C@@]3(C[C@H](Oc4nc(C5CC5)sc4C(N)=O)C3)C2)C1=O (stereo partly drawn) [Example 106, 2-cyclopropyl-4-{[(aR)-6-[2,5-dioxo-4-(propan-2-yl)imidazolidin-1-yl]spiro[3.3]heptan-2-yl]oxy}-1,3-thiazole-5-carboxamide] | 0.587 µM
4 | COc1nc(O[C@H]2C[C@@]3(C[C@H](NC(=O)c4cnn5cc(OCC(F)F)ccc45)C3)C2)c(C(N)=O)s1 (stereo partly shown) [Example 115, 2-methoxy-4-{[(4s)-6-[6-(2,2-difluoroethoxy)pyrazolo[1,5-a]pyridine-3-amido]spiro[3.3]heptan-2-yl]oxy}-1,3-thiazole-5-carboxamide] | 0.0312 µM
5 | CC(C)(O)COc1ccc2c(C(=O)N[C@H]3CC4(C3)C[C@H](Oc3c(C(N)=O)cnn3CCCN)C4)cnn2c1C1CC1 (stereo partly drawn) [Example 28, 1-(3-aminopropyl)-5-({(aR)-6-[7-cyclopropyl-6-(2-hydroxy-2-methylpropoxy)pyrazolo [1,5-a]pyridine-3-amido]spiro[3.3]heptan-2-yl}oxy)-1H-pyrazole-4-carboxamide] | 0.551 µM
6 | NC(=O)c1cn(C2CC2)nc1O[C@H]1C[C@@]2(C[C@H](NC(=O)c3cnn4cc(OCC(F)F)ccc34)C2)C1 (stereo partly drawn) [Example 57, 1-cyclopropyl-3-{[(aR)-6-[6-(2,2-difluoroethoxy)pyrazolo[1,5-a]pyridine-3-amido]spiro[3.3]heptan-2-yl]oxy}-1H-pyrazole-4-carboxamide] | 0.0159 µM
7 | Cc1nc(O[C@H]2C[C@@]3(C[C@H](NC(=O)c4nn(C(F)F)c5cc(OCC(C)(C)O)ccc45)C3)C2)c(C(N)=O)s1 (stereo partly drawn) [Example 25, N-{(aR)-6-[(5-carbamoyl-2-methyl-1,3-thiazol-4-yl)oxy]spiro[3.3]heptan-2-yl}-1-(difluoromethyl)-6-(2-hydroxy-2-methylpropoxy)-1H-indazole-3-carboxamide] | 0.0064 µM
8 | [H][C@]1(Oc2nn3ccccc3c2C(N)=O)C[C@]2(C[C@@H](NC(=O)c3cnn4c(C5CC5)c(OCC(C)(C)O)ccc34)C2)C1 (stereo partly shown) [Example 6] | 0.0256 µM
9 | COc1nc(O[C@H]2C[C@@]3(C[C@H](NC(=O)c4cnn5cc(OCC(F)(F)F)ccc45)C3)C2)c(C(N)=O)s1 (stereo partly shown) [Example 117, 2-methoxy-4-{[(4s)-6-[6-(2,2,2-trifluoroethoxy)pyrazolo[1,5-a]pyridine-3-amido]spiro[3.3]heptan-2-yl]oxy}-1,3-thiazole-5-carboxamide] | 0.0587 µM
10 | NC(=O)c1cn(C2CC2)nc1O[C@H]1C[C@@]2(C[C@H](NC(=O)c3nc(C(F)(F)F)n4cc(Br)ccc34)C2)C1 (stereo partly drawn) [Example 60, 1-cyclopropyl-3-{[(aR)-6-[6-bromo-3-(trifluoromethyl)imidazo[1,5-a]pyridine-1-amido]spiro[3.3]heptan-2-yl]oxy}-1H-pyrazole-4-carboxamide] | 0.0355 µM
11 | Cc1nc(NCC(C)(C)O)sc1C(=O)N[C@H]1C[C@]2(C1)C[C@H](Oc1nc3c(cc1C(N)=O)COCC3)C2 (stereo partly shown) [Example 144, 2-[(2-hydroxy-2-methylpropyl)amino]-4-methyl-N-[(4s)-6-({3-carbamoyl-5H,7H,8H-pyrano[4,3-b]pyridin-2-yl}oxy)spiro[3.3]heptan-2-yl]-1,3-thiazole-5-carboxamide] | 0.367 µM
12 | CC(C)CC1NC(=O)N([C@H]2C[C@@]3(C[C@H](Oc4nc(C5CC5)sc4C(N)=O)C3)C2)C1=O (single isomer, unassigned) [Example 110, 2-cyclopropyl-4-{[{aR)-6-[4-(2-methylpropyl)-2,5-dioxoimidazolidin-1-yl]spiro[3.3]heptan-2-yl]oxy}-1,3-thiazole-5-carboxamide] | 0.0122 µM
13 | NC(=O)c1sc(C2CC2)nc1O[C@H]1C[C@@]2(C[C@H](NC(=O)c3nc(C(F)(F)F)n4ccccc34)C2)C1 (stereo partly drawn) [Example 64, 2-cyclopropyl-4-{[(aR)-6-[3-(trifluoromethyl)imidazo[1,5-a]pyridine-1-amido]spiro[3.3]heptan-2-yl]oxy}-1,3-thiazole-5-carboxamide] | 0.0114 µM
14 | NC(=O)c1sc(C2CC2)nc1O[C@H]1C[C@]2(C1)C[C@H](N1C(=O)NC(Cc3cccnc3)C1=O)C2 (stereo partly drawn) [Example 107, 2-cyclopropyl-4-{[(aR)-6-{2,5-dioxo-4-[(pyridin-3-yl)methyl]imidazolidin-1-yl}spiro[3.3]heptan-2-yl]oxy}-1,3-thiazole-5-carboxamide] | 1.83 µM
15 | Cn1cc(C(N)=O)c(O[C@H]2C[C@@]3(C[C@H](NC(=O)c4cnn5cc(N6CCOCC6)ccc45)C3)C2)n1 (stereo partly drawn) [Example 32, 1-methyl-3-({(aR)-6-[6-(morpholin-4-yl)pyrazolo[1,5-a]pyridine-3-amido]spiro[3.3]heptan-2-yl}oxy)-1H-pyrazole-4-carboxamide] | 0.0299 µM

Continued, values first:

Row | IC50 | Structure (SMILES)
16 | 0.0448 µM | Cc1c(C(=O)N[C@H]2C[C@]3(C2)C[C@H](Oc2nn(C4CC4)cc2C(N)=O)C3)cnn1-c1ccc(Cl)cc1 (stereo partly drawn) [Example 51, 1-cyclopropyl-3-{[(aR)-6-[1-(4-chlorophenyl)-5-methyl-1H-pyrazole-4-amido]spiro[3.3]heptan-2-yl]oxy}-1H-pyrazole-4-carboxamide]
17 | 0.005 µM | Cn1ncc2cc(C(N)=O)c(O[C@H]3C[C@@]4(C[C@H](NC(=O)c5cnc6ccc(F)cc6c5)C4)C3)nc21 (stereo partly drawn) [Example 103, 6-fluoro-N-[(aR)-6-({5-carbamoyl-1-methyl-1H-pyrazolo[3,4-b]pyridin-6-yl}oxy)spiro[3.3]heptan-2-yl]quinoline-3-carboxamide]
18 | 0.0252 µM | Cc1c(C(=O)N[C@H]2C[C@]3(C2)C[C@H](Oc2nc(C4CC4)sc2C(N)=O)C3)cnn1-c1ccc(C#N)cc1 (stereo partly drawn) [Example 44, 2-cyclopropyl-4-{[(aR)-6-[1-(4-cyanophenyl)-5-methyl-1H-pyrazole-4-amido]spiro[3.3]heptan-2-yl]oxy}-1,3-thiazole-5-carboxamide]
19 | 0.0053 µM | NC(=O)c1cn(C2CC2)nc1O[C@H]1C[C@@]2(C[C@H](NC(=O)c3nc(C(F)(F)F)n4cc(-c5ccc(F)nc5)ccc34)C2)C1 (stereo partly drawn) [Example 59, 1-cyclopropyl-3-{[(aR)-6-[6-(6-fluoropyridin-3-yl)-3-(trifluoromethyl)imidazo[1,5-a]pyridine-1-amido]spiro[3.3]heptan-2-yl]oxy}-1H-pyrazole-4-carboxamide]
20 | 0.113 µM | Cc1c(C(=O)N[C@H]2C[C@]3(C2)C[C@H](Oc2nn(C)cc2C(N)=O)C3)cnn1-c1ccc(Cl)cc1 (stereo partly drawn) [Example 47, 1-(4-chlorophenyl)-5-methyl-N-[(aR)-6-[(4-carbamoyl-1-methyl-1H-pyrazol-3-yl)oxy]spiro[3.3]heptan-2-yl]-1H-pyrazole-4-carboxamide]
21 | 0.0145 µM | Cn1ncc2cc(C(N)=O)c(O[C@H]3C[C@@]4(C[C@H](NC(=O)c5nnc(-c6ccc(C(F)(F)F)cc6)s5)C4)C3)nc21 (stereo partly shown) [Example 149, N-[(4s)-6-({5-carbamoyl-1-methyl-1H-pyrazolo[3,4-b]pyridin-6-yl}oxy)spiro[3.3]heptan-2-yl]-5-[4-(trifluoromethyl)phenyl]-1,3,4-thiadiazole-2-carboxamide]
22 | 0.0063 µM | Cc1c(C(=O)N[C@H]2C[C@]3(C2)C[C@H](Oc2nc4c(cnn4C)cc2C(N)=O)C3)cnn1-c1ccc(C#N)cc1 (stereo partly shown) [Example 152, 1-(4-cyanophenyl)-5-methyl-N-[(4s)-6-({5-carbamoyl-1-methyl-1H-pyrazolo[3,4-b]pyridin-6-yl}oxy)spiro[3.3]heptan-2-yl]-1H-pyrazole-4-carboxamide]
23 | 0.079 µM | Cc1sc2cc(C(N)=O)c(O[C@H]3C[C@@]4(C[C@H](NC(=O)c5cccc(C#N)c5)C4)C3)nc2c1C (stereo partly drawn) [Example 95, 2,3-dimethyl-5-{[(aR)-6-(3-cyanobenzamido)spiro[3.3]heptan-2-yl]oxy}thieno[3,2-b]pyridine-6-carboxamide]
24 | 0.702 µM | Cc1c(C(=O)N[C@H]2C[C@]3(C2)C[C@H](Oc2nn4cc(F)ccc4c2C(N)=O)C3)cnn1-c1ccc(C#N)cc1 (stereo partly shown) [Example 129, 1-(4-cyanophenyl)-5-methyl-N-[(4s)-6-({3-carbamoyl-6-fluoropyrazolo[1,5-a]pyridin-2-yl}oxy)spiro[3.3]heptan-2-yl]-1H-pyrazole-4-carboxamide]
25 | 0.0671 µM | Cc1csc2cc(C(N)=O)c(O[C@H]3C[C@@]4(C[C@H](NC(=O)c5cnc6ccc(F)cc6c5)C4)C3)nc12 (stereo partly drawn) [Example 99, 6-fluoro-N-[(aR)-6-({6-carbamoyl-3-methylthieno[3,2-b]pyridin-5-yl}oxy)spiro[3.3]heptan-2-yl]quinoline-3-carboxamide]
26 | 0.0087 µM | CC(C)(O)COc1ccc2c(C(=O)N[C@H]3C[C@]4(C3)C[C@H](Oc3nc5ccccc5cc3C(N)=O)C4)cnn2c1C1CC1 (stereo partly drawn) [Example 71, 2-(((aR)6-(7-cyclopropyl-6-(2-hydroxy-2-methylpropoxy)pyrazolo [1,5-a]pyridine-3-carboxamido)spiro [3.3]heptan-2-yl)oxy)quinoline-3-carboxamide]
27 | 0.108 µM | Cc1c(C(=O)N[C@H]2C[C@]3(C2)C[C@H](Oc2nc(C4CC4)sc2C(N)=O)C3)cnn1-c1ccccc1 (stereo partly drawn) [Example 68, 2-cyclopropyl-4-{[(aR)-6-(5-methyl-1-phenyl-1H-pyrazole-4-amido)spiro[3.3]heptan-2-yl]oxy}-1,3-thiazole-5-carboxamide]
28 | 1.46 µM | N#Cc1ccc(C(=O)N[C@H]2C[C@]3(C2)C[C@H](Oc2nc4c(cc2C(N)=O)COCC4)C3)cc1F (stereo partly drawn) [Example 93, 2-{[(aR)-6-(4-cyano-3-fluorobenzamido)spiro[3.3]heptan-2-yl]oxy}-5H,7H,8H-pyrano[4,3-b]pyridine-3-carboxamide]
